Values quoted from earlier work in patent EP3074407B1, “COMPOUND AND METHOD FOR SELECTIVE RADIOLABELLING OF POLYPEPTIDES BY MEANS OF SOLID-PHASE SYNTHESIS” (Freie Universität Berlin, priority 2013, dated 2015).

Legend:
[1] = PET, Menschen, Primaten und Nagetieren; cited from earlier work
[2] = literature (Breeman et al. 1996); cited from earlier work

Compound | Aufnahme im Gehirn [1] | Durchlässigkeit der Blut-Hirn-Schranke [2]
FC(F)(F)c1nnnn1-c1ccc(OC[18F])c(CN[C@H]2CCCN[C@H]2c2ccccc2)c1 [18F-SPA-RQ] | hohe Aufnahme | 
[indium111-DTPA-Argl]substance P [In^111 markierten Substanz P-Agonisten] |  | undurchlässig
